# Experimental data: paper PMC4303209, “A novel phosphatidylinositol 3-kinase (PI3K) inhibitor directs a potent FOXO-dependent, p53-independent cell cycle arrest phenotype characterized by the differential induction of a subset of FOXO-regulated genes” (Breast Cancer Research : BCR, 2014)
# Test system: MCF-7 breast cancer cells
# Assay: Microarray gene expression analysis (Agilent whole human genome 4 x 44K; compound vs DMSO, LIMMA log2 fold change)
# Type: cell-based
# Settings: cell cycle genes
compound,measurement,setting,value
Oc1cccc(-c2nc(N3CCOCC3)c3oc4ncccc4c3n2)c1 [PI-103],TRIAP1 log2FC,Gene 51499,-0.86
same,DTL log2FC,Gene 51514,-0.14
same,SIRT7 log2FC,Gene 51547,0.32
same,CINP log2FC,Gene 51550,-0.05
same,GINS2 log2FC,Gene 51659,-0.80
same,NUP54 log2FC,Gene 53371,0.41
same,PELO log2FC,Gene 53918,-0.59
same,WNT4 log2FC,Gene 54361,-0.42
same,ANLN log2FC,Gene 54443,0.75
same,FBXW5 log2FC,Gene 54461,0.13
same,FAM64A log2FC,Gene 54478,0.10
same,DDX4 log2FC,Gene 54514,-0.13
same,BTG4 log2FC,Gene 54766,0.11
same,NDE1 log2FC,Gene 54820,0.40
same,NSUN2 log2FC,Gene 54888,-0.48
same,TTC19 log2FC,Gene 54902,0.67
same,TXNL4B log2FC,Gene 54957,0.28
same,BANP log2FC,Gene 54971,0.16
same,AURKAIP1 log2FC,Gene 54998,-0.22
same,PHIP log2FC,Gene 55023,1.07
same,USP47 log2FC,Gene 55031,0.61
same,ZWILCH log2FC,Gene 55055,0.41
same,PIWIL2 log2FC,Gene 55124,0.06
same,CEP192 log2FC,Gene 55125,0.35
same,CDCA8 log2FC,Gene 55143,-0.04
same,RFWD3 log2FC,Gene 55159,-0.62
same,CEP55 log2FC,Gene 55165,0.99
same,CENPQ log2FC,Gene 55166,0.81
same,RIF1 log2FC,Gene 55183,0.39
same,ARL8B log2FC,Gene 55207,0.45
same,RCBTB1 log2FC,Gene 55213,0.71
same,CCDC87 log2FC,Gene 55231,0.15
same,STEAP3 log2FC,Gene 55240,-0.44
same,MNS1 log2FC,Gene 55329,0.91
same,MCM10 log2FC,Gene 55388,-0.91
same,SMPD3 log2FC,Gene 55512,-0.27
same,TRIM36 log2FC,Gene 55521,0.64
same,RBM38 log2FC,Gene 55544,-0.58
same,PRR5 log2FC,Gene 55615,0.45
same,PRPF40A log2FC,Gene 55660,1.01
same,CEP72 log2FC,Gene 55722,0.31
same,CHFR log2FC,Gene 55743,-0.11
same,NUP133 log2FC,Gene 55746,0.25
same,CCAR1 log2FC,Gene 55749,0.55
same,CDK5RAP2 log2FC,Gene 55755,0.51
same,PCID2 log2FC,Gene 55795,0.32
same,CENPN log2FC,Gene 55839,0.30
same,PPP2R2D log2FC,Gene 55844,-0.17
same,HDAC8 log2FC,Gene 55869,-0.36
same,PBK log2FC,Gene 55872,0.46
same,BIN3 log2FC,Gene 55909,-0.80
same,ERBB2IP log2FC,Gene 55914,1.07
same,RCC2 log2FC,Gene 55920,-0.27
same,KLHL9 log2FC,Gene 55958,0.04
same,TEX11 log2FC,Gene 56159,0.000672
same,TDRD1 log2FC,Gene 56165,0.04
same,PARD3 log2FC,Gene 56288,0.46
same,RPRM log2FC,Gene 56475,-0.24
same,CYP26B1 log2FC,Gene 56603,0.03
same,SPIRE1 log2FC,Gene 56907,0.10
same,SMARCAD1 log2FC,Gene 56916,0.55
same,PRDM9 log2FC,Gene 56979,0.0757
same,KIF15 log2FC,Gene 56992,1.30
same,PDXP log2FC,Gene 57026,-0.93
same,PCBP4 log2FC,Gene 57060,-0.27
same,CASC5 log2FC,Gene 57082,0.12
same,PCNP log2FC,Gene 57092,0.60
same,NUP107 log2FC,Gene 57122,0.63
same,CHMP1B log2FC,Gene 57132,0.39
same,PAK7 log2FC,Gene 57144,0.45
same,CSRP2BP log2FC,Gene 57325,0.27
same,TTYH1 log2FC,Gene 57348,-0.09
same,BIRC6 log2FC,Gene 57448,0.14
same,MTA3 log2FC,Gene 57504,0.33
same,HACE1 log2FC,Gene 57531,0.51
same,TAOK1 log2FC,Gene 57551,0.40
same,USP37 log2FC,Gene 57695,0.38
same,FANCM log2FC,Gene 57697,0.48
same,CCNB1IP1 log2FC,Gene 57820,0.84
same,RHOU log2FC,Gene 58480,1.56
same,OVOL2 log2FC,Gene 58495,0.16
same,AVPI1 log2FC,Gene 60370,0.53
same,RINT1 log2FC,Gene 60561,0.44
same,FAM111A log2FC,Gene 63901,0.33
same,DMRTC2 log2FC,Gene 63946,-0.00414
same,CLSPN log2FC,Gene 63967,-0.11
same,TSPYL2 log2FC,Gene 64061,-0.12
same,DPEP3 log2FC,Gene 64180,0.19
same,RFWD2 log2FC,Gene 64326,-0.06
same,CENPH log2FC,Gene 64946,0.38
same,MRPL41 log2FC,Gene 64975,-0.47
same,INTS3 log2FC,Gene 65123,-0.18
same,PHACTR4 log2FC,Gene 65979,0.43
same,BOLL log2FC,Gene 66037,-0.012
same,MIS12 log2FC,Gene 79003,-0.76
same,CENPM log2FC,Gene 79019,0.04
same,NUP37 log2FC,Gene 79023,0.16
same,ZNF655 log2FC,Gene 79027,0.68
same,CENPO log2FC,Gene 79172,-0.71
same,E2F8 log2FC,Gene 79733,0.23
same,FBXO31 log2FC,Gene 79791,-0.10
same,CSPP1 log2FC,Gene 79848,0.57
same,NEK11 log2FC,Gene 79858,0.47
same,MAP9 log2FC,Gene 79884,1.08
same,NUP85 log2FC,Gene 79902,0.18
same,CEP76 log2FC,Gene 79959,0.32
same,CENPT log2FC,Gene 80152,0.00794
same,DBF4B log2FC,Gene 80174,-0.40
same,CEP290 log2FC,Gene 80184,0.83
same,CEP63 log2FC,Gene 80254,0.71
same,CDK5RAP3 log2FC,Gene 80279,0.0271
same,CEP70 log2FC,Gene 80321,0.58
same,TUBB1 log2FC,Gene 81027,-0.33
same,NDEL1 log2FC,Gene 81565,-0.13
same,FAM83D log2FC,Gene 81610,-0.15
same,CAB39L log2FC,Gene 81617,0.08
same,CCNL2 log2FC,Gene 81669,-0.13
same,CABLES2 log2FC,Gene 81928,-0.71
same,KIF18A log2FC,Gene 81930,1.18
same,SESN2 log2FC,Gene 83667,-0.54
same,SETDB2 log2FC,Gene 83852,1.23
same,GSG2 log2FC,Gene 83903,-0.50
same,RASSF4 log2FC,Gene 83937,0.14
same,MND1 log2FC,Gene 84057,0.59
same,HORMAD1 log2FC,Gene 84072,0.40
same,USP44 log2FC,Gene 84101,0.0155
same,CEP78 log2FC,Gene 84131,0.36
same,GINS4 log2FC,Gene 84296,-0.47
same,RAB11FIP4 log2FC,Gene 84440,0.56
same,LZTS2 log2FC,Gene 84445,1.13
same,BRSK1 log2FC,Gene 84446,0.0146
same,SPIRE2 log2FC,Gene 84501,0.56
same,PARD6B log2FC,Gene 84612,0.88
same,PPP1R9B log2FC,Gene 84687,-0.13
same,SPATA22 log2FC,Gene 84690,0.0637
same,BEX2 log2FC,Gene 84707,0.83
same,PSRC1 log2FC,Gene 84722,0.36
same,KLHL22 log2FC,Gene 84861,0.21
same,TBRG1 log2FC,Gene 84897,0.08
same,MASTL log2FC,Gene 84930,0.43
same,LSM10 log2FC,Gene 84967,-1.02
same,CCNB3 log2FC,Gene 85417,0.31
same,LRRCC1 log2FC,Gene 85444,0.61
same,DIXDC1 log2FC,Gene 85458,0.018
same,PNPT1 log2FC,Gene 87178,-0.10
same,LMLN log2FC,Gene 89782,0.82
same,KLHL13 log2FC,Gene 90293,0.07
same,GADD45GIP1 log2FC,Gene 90480,-0.25
same,SLFN11 log2FC,Gene 91607,-0.61
same,CENPL log2FC,Gene 91687,-0.11
same,CABLES1 log2FC,Gene 91768,1.68
same,SYCE1 log2FC,Gene 93426,-0.08
same,ACTR8 log2FC,Gene 93973,0.12
same,TP53INP1 log2FC,Gene 94241,0.89
same,CDCA5 log2FC,Gene 113130,0.0109
same,TUBGCP5 log2FC,Gene 114791,0.12
